Key:
PARP7 = target: T1, PARP7 (Homo sapiens, UniProt Q7Z3E1); assay: Probe Displacement Assay for PARP7 (MSD electrochemiluminescent, biotinylated probe RBNO11147); conditions: displacement of biotinylated probe RBNO11147 from PARP7 NAD+-binding site; read-out: MSD ProbeDisp PARP7 IC50
T1 sequence (Q7Z3E1 1-657): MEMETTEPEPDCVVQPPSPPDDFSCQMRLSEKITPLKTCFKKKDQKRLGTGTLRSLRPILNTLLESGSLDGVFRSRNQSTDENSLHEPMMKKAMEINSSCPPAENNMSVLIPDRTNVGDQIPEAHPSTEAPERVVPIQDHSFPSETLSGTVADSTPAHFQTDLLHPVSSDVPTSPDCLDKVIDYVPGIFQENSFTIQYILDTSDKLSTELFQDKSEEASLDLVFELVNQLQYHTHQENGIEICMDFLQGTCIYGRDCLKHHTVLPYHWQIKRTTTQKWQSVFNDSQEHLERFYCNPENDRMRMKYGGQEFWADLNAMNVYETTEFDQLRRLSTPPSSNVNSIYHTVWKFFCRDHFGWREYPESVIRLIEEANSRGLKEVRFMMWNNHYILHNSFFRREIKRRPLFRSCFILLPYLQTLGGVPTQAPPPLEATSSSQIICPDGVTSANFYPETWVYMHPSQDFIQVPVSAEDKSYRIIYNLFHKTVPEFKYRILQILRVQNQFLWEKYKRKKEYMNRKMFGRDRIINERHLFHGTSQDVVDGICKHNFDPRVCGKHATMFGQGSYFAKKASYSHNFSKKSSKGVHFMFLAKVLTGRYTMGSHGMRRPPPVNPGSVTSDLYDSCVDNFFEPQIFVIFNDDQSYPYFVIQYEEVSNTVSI
Procedure: Displacement of a biotinylated probe (RBNO11147; Wigle et al., Cell Chemical Biology, 2020, pp. 877-887) from the PARP7 NAD+-binding site was measured in vitro using a Mesoscale Discovery electrochemiluminescent assay. […] Next, 10 ml of 10 nM PARP7 protein incubated for 1 hour at room temperature with a dose response curve of each test compound in a Greiner LDV polypropylene plate (#781201) is added to the MSD plate containing the immobilized probe. The interaction is allowed to reach equilibrium for 1.5 hours, and then 10 ml of SULFO-TAG labeled anti-GST antibody (Cat #R32AA-1) is added to each well and allowed to incubate for an additional 1.5 hours at room temperature. Finally, 10 ml of MSD read buffer T (4×, Cat. #R92C-1) is added to each well using a Bravo liquid handler to prevent air bubbles in the wells, and the plates are subsequently read in an MSD instrument. Light intensity is then measured to quantify the amount of PARP7 bound to the immobilized probe on the plate.

[1] = system: endogenous cellular STAT1 (phosphorylated at Tyr701) in NCI-H1373 cells; assay: Phospho-STAT1 (Tyr701) LANCE Ultra TR-FRET Detection Assay; type: cell-based; conditions: Homo sapiens, NCI-H1373, 48 h, phospho-STAT1 (Tyr701) induction, read-out: NH1373 pSTAT1 EC50

Structure (SMILES)	IC50 (PARP7)	EC50 [1]
C[C@@H](CCCn1ccc2cc(-c3cc(N)c(C(F)(F)F)cn3)c(F)cc2c1=O)Nc1cn[nH]c(=O)c1C(F)(F)F [Example 49, 6-[4-amino-5-(trifluoromethyl)-2-pyridyl]-7-fluoro-2-[(4S)-4-[[6-oxo-5-(trifluoromethyl)-1H-pyridazin-4-yl]amino]pentyl]isoquinolin-1-one]	0.413 nM	54.1 nM
C[C@@H](CCCn1ccc2cc(-c3ccc(C(N)C(F)(F)F)cn3)c(F)cc2c1=O)Nc1cn[nH]c(=O)c1C(F)(F)F (stereo partly drawn) [Example 50, 6-[5-(1-amino-2,2,2-trifluoro-ethyl)-2-pyridyl]-7-fluoro-2-[(4S)-4-[[6-oxo-5-(trifluoromethyl)-1H-pyridazin-4-yl]amino]pentyl]isoquinolin-1-one]	2.13 nM	2760 nM
C[C@@H](CCCn1ccc2cc(-c3ccc(F)cn3)c(F)c(F)c2c1=O)Nc1cn[nH]c(=O)c1C(F)(F)F [Example 52, (S)-7,8-difluoro-6-(5-fluoropyridin-2-yl)-2-(4-((6-oxo-5-(trifluoromethyl)-1,6-dihydropyridazin-4-yl)amino)pentyl)isoquinolin-1(2H)-one]	0.763 nM	164 nM
C[C@@H](CCCn1ccc2cc(-c3ncc(C(F)F)cn3)c(F)c(F)c2c1=O)Nc1cn[nH]c(=O)c1C(F)(F)F [Example 53, (S)-6-(5-(difluoromethyl)pyrimidin-2-yl)-7,8-difluoro-2-(4-((6-oxo-5-(trifluoromethyl)-1,6-dihydropyridazin-4-yl)amino)pentyl)isoquinolin-1(2H)-one]	0.496 nM	17 nM
C[C@@H](CCCn1ccc2cc(-c3ncc(F)cn3)c(F)c(F)c2c1=O)Nc1cn[nH]c(=O)c1C(F)(F)F [Example 54, (S)-7,8-difluoro-6-(5-fluoropyrimidin-2-yl)-2-(4-((6-oxo-5-(trifluoromethyl)-1,6-dihydropyridazin-4-yl)amino)pentyl)isoquinolin-1(2H)-one]	0.685 nM	156 nM
C[C@@H](CCCn1ccc2cc(-c3ccc(C(F)(F)F)cn3)c(F)c(F)c2c1=O)Nc1cn[nH]c(=O)c1C(F)(F)F [Example 55, (S)-7,8-difluoro-2-(4-((6-oxo-5-(trifluoromethyl)-1,6-dihydropyridazin-4-yl)amino)pentyl)-6-(5-(trifluoromethyl)pyridin-2-yl)isoquinolin-1(2H)-one]	0.692 nM	39.1 nM
C[C@@H](CCCn1ccc2cc(-c3ncc(OC(F)F)cn3)c(F)c(F)c2c1=O)Nc1cn[nH]c(=O)c1C(F)(F)F [Example 56, (S)-6-(5-(difluoromethoxy)pyrimidin-2-yl)-7,8-difluoro-2-(4-((6-oxo-5-(trifluoromethyl)-1,6-dihydropyridazin-4-yl)amino)pentyl)isoquinolin-1(2H)-one]	0.579 nM	67.2 nM
C[C@@H](CCCn1ccc2cc(-c3ccc(OC(F)F)cn3)c(F)c(F)c2c1=O)Nc1cn[nH]c(=O)c1C(F)(F)F [Example 57, (S)-6-(5-(difluoromethoxy)pyridin-2-yl)-7,8-difluoro-2-(4-((6-oxo-5-(trifluoromethyl)-1,6-dihydropyridazin-4-yl)amino)pentyl)isoquinolin-1(2H)-one]	0.613 nM	144 nM
C[C@@H](CCCn1cnc2cc(-c3ccc(C(F)(F)F)cn3)c(F)cc2c1=O)Nc1cn[nH]c(=O)c1C(F)(F)F [Example 58, (S)-6-fluoro-3-(4-((6-oxo-5-(trifluoromethyl)-1,6-dihydropyridazin-4-yl)amino)pentyl)-7-(5-(trifluoromethyl)pyridin-2-yl)quinazolin-4(3H)-one]	0.484 nM	124 nM
C[C@@H](CCCn1cnc2cc(-c3ccc(F)cn3)c(F)cc2c1=O)Nc1cn[nH]c(=O)c1C(F)(F)F [Example 59, (S)-6-fluoro-7-(5-fluoropyridin-2-yl)-3-(4-((6-oxo-5-(trifluoromethyl)-1,6-dihydropyridazin-4-yl)amino)pentyl)quinazolin-4(3H)-one]	0.82 nM	386 nM
C[C@@H](CCCn1cnc2cc(-c3ncc(F)cn3)c(F)cc2c1=O)Nc1cn[nH]c(=O)c1C(F)(F)F [Example 60, 6-fluoro-7-(5-fluoropyrimidin-2-yl)-3-[(4S)-4-[[6-oxo-5-(trifluoromethyl)-1H-pyridazin-4-yl]amino]pentyl]quinazolin-4-one]	0.897 nM	772 nM
O=c1[nH]ncc(NC2(CCCn3ccc4cc(-c5ncc(C(F)(F)F)cn5)c(F)cc4c3=O)CC2)c1C(F)(F)F [Example 61, 7-fluoro-2-(3-(1-((6-oxo-5-(trifluoromethyl)-1,6-dihydropyridazin-4-yl)amino)cyclopropyl)propyl)-6-(5-(trifluoromethyl)pyrimidin-2-yl)isoquinolin-1(2H)-one]	1.27 nM	638 nM
C[C@@H](CCCn1ccc2cc(-c3ncc(C(F)F)cn3)c(F)cc2c1=O)Nc1cn[nH]c(=O)c1C(F)(F)F [Example 76, 6-[5-(difluoromethyl)pyrimidin-2-yl]-7-fluoro-2-[(4S)-4-[[6-oxo-5-(trifluoromethyl)-1H-pyridazin-4-yl]amino]pentyl]isoquinolin-1-one]	0.41 nM	21.3 nM
C[C@@H](CCCn1ccc2cc(-c3ncc(C(F)F)c(N)n3)c(F)cc2c1=O)Nc1cn[nH]c(=O)c1C(F)(F)F [Example 104, 6-[4-amino-5-(difluoromethyl)pyrimidin-2-yl]-7-fluoro-2-[(4S)-4-[[6-oxo-5-(trifluoromethyl)-1H-pyridazin-4-yl]amino]pentyl]isoquinolin-1-one]	0.33 nM	4.6 nM
CC[C@@H](CCCn1cnc2cc(-c3ncc(C(F)(F)F)cn3)c(F)cc2c1=O)Nc1cn[nH]c(=O)c1C(F)(F)F [Example 155, (S)-6-fluoro-3-(4-((6-oxo-5-(trifluoromethyl)-1,6-dihydropyridazin-4-yl)amino)hexyl)-7-(5-(trifluoromethyl)pyrimidin-2-yl)quinazolin-4(3H)-one]	0.2 nM	21.2 nM
CC[C@@H](CCCn1cnc2cc(-c3ncc(C(F)F)cn3)c(F)cc2c1=O)Nc1cn[nH]c(=O)c1C(F)(F)F [Example 156, 7-[5-(difluoromethyl)pyrimidin-2-yl]-6-fluoro-3-[(4S)-4-[[6-oxo-5-(trifluoromethyl)-1H-pyridazin-4-yl]amino]hexyl]quinazolin-4-one]	0.29 nM	22.1 nM
O=c1[nH]ncc(N[C@@H](CO)CCCn2ccc3cc(-c4ncc(C(F)(F)F)cn4)c(F)c(F)c3c2=O)c1C(F)(F)F [Example 163, 7,8-difluoro-2-[(4R)-5-hydroxy-4-[[6-oxo-5-(trifluoromethyl)-1H-pyridazin-4-yl]amino]pentyl]-6-[5-(trifluoromethyl)pyrimidin-2-yl]isoquinolin-1-one]	0.341 nM	62.8 nM
O=c1[nH]ncc(N[C@H](CCCn2ccc3cc(-c4ncc(C(F)(F)F)cn4)c(F)cc3c2=O)COC(F)F)c1C(F)(F)F [Example 168, 2-[(4R)-5-(difluoromethoxy)-4-[[6-oxo-5-(trifluoromethyl)-1H-pyridazin-4-yl]amino]pentyl]-7-fluoro-6-[5-(trifluoromethyl)pyrimidin-2-yl]isoquinolin-1-one]	0.256 nM	1.32 nM
Nc1nc(-c2cc3ccn(C[C@@H]4CCC[C@H](Nc5cn[nH]c(=O)c5C(F)(F)F)C4)c(=O)c3cc2F)ncc1C(F)(F)F [Example 184, 6-[4-amino-5-(trifluoromethyl)pyrimidin-2-yl]-7-fluoro-2-[[(1R,3S)-3-[[6-oxo-5-(trifluoromethyl)-1H-pyridazin-4-yl]amino]cyclohexyl]methyl]isoquinolin-1-one]	0.311 nM	1.8 nM
C[C@@H](CCCn1ccc2cc(-c3ncc4c(n3)NC(=O)CO4)c(F)cc2c1=O)Nc1cn[nH]c(=O)c1C(F)(F)F [Example 185, (S)-2-(7-fluoro-1-oxo-2-(4-((6-oxo-5-(trifluoromethyl)-1,6-dihydropyridazin-4-yl)amino)pentyl)-1,2-dihydroisoquinolin-6-yl)-6H-pyrimido[5,4-b][1,4]oxazin-7(8H)-one]	0.11 nM	1750 nM
C[C@@H](CCCn1cnc2cc(-c3ncc(C(F)(F)F)c(N4CC(C#N)C4)n3)c(F)cc2c1=O)Nc1cn[nH]c(=O)c1C(F)(F)F [Example 206]	0.188 nM	9.34 nM
C[C@@H](CCCn1ccc2cc(-c3ncc4cn[nH]c4n3)c(F)cc2c1=O)Nc1cn[nH]c(=O)c1C(F)(F)F [Example 299, (S)-7-fluoro-2-(4-((6-oxo-5-(trifluoromethyl)-1,6-dihydropyridazin-4-yl)amino)pentyl)-6-(1H-pyrazolo[3,4-d]pyrimidin-6-yl)isoquinolin-1(2H)-one]	0.221 nM	31 nM
